In publication PMC10470313, “Developing a peptide to disrupt cohesin head domain interactions” (iScience, 2023):
Where no end group is shown, it is not given here.

Columns and labels:
[1] = system: yME-961 strain yeast cells; experiment: Cell cycle stage by flow cytometry; assay type: cell-based; settings: peptide 1 h at G1, release to G2/M arrest
Procedure: The potential of CIP3-TAT to inhibit cohesion activity was explored by analyzing sister chromatid cohesion in cells arrested at the G2/M. Inserted in the LYS4 locus were LacO arrays, which bind LacI-GFP. In unperturbed cells arrested at the G2/M phase of the cell cycle, cohesin tethers the sister chromatids visualized under the microscope as a single GFP dot. When cohesin is inactivated, the sister chromatids fall apart and are seen as two distinctive GFP dots. yME-961 strain cells were grown to mid-log phase and arrested at the G1 phase of the cell cycle. Cells were divided into three samples, of which two were supplemented with TAT peptide alone or CIP3-TAT for 1 h. Then, the cells were released into the cell cycle until their rearrest at the G2/M phase. Cells were processed for cohesion assay (Figure 4A).
Supplementary Figure S3. Binding of CIP3-TAT to cohesin by microscale thermophoresis, Related to Figure 3. 10 µM CIP3-TAT was added to protein extracts from strain yAM-945 (Smc3-GFP). The formation of the CIP3-TAT and cohesin complex was analyzed by MST in binding mode. A. MST trace. […]
3. […] The purified proteins were analyzed on gel, followed by coomassie staining. […]
Supplementary Figure S5. […] The entry of the peptide into the cells was analyzed by epifluorescence microscopy.
Supplementary Figure S6. […] The cell cycle stage of the cells, described in Fig. 4B, was determined by flow cytometry. […]

[2] = system: cohesin (Smc3-V5) on chromatin, yKS-008 strain; experiment: Chromatin immunoprecipitation (ChIP) of cohesin (Smc3-V5); assay type: cell-based, yeast; settings: G2/M arrested; anti-V5 ChIP-qPCR; centromeres of chromosomes 3 and 4, rDNA locus chromosome 12, CARC1 chromosome 3
Procedure: To test the effect of CIP3 on the association of cohesin with chromatin, we performed a chromatin immunoprecipitation (ChIP) assay. yKS-008 strain (Smc3-V5) cells were grown to mid-log phase and arrested in the G1 phase of the cell cycle. Cells were untreated or supplemented with CIP3-TAT and then released into the cell cycle until they were rearrested at the G2/M phase. Cells were processed for ChIP with antibodies against V5 (Figure 4D). Cohesin residency was explored on loci on which cohesin enrichment: the centromeres of chromosome 3 and chromosome 4, the rDNA locus on chromosome 12 and the cohesin-associated region C1 (CARC1) on chromosome 3. […] However, it stabilizes non-cohesive chromosome-bound cohesin. […] Thus, we conclude that CIP3 inhibits ATP hydrolysis rather than blocks ATP binding and cohesin loading.
The cohesion GFP dot assay and ChIP are described in.[46]^,[63]^,[68] In brief, cohesion was studied by visualizing LacO arrays inserted at the LYS locus in a strain expressing LacI-GFP. Cell cultures were grown in a YEPD to OD600=0.5 and synchronized by nocodazole. Cells were fixed by incubating with 100 μl of 4% paraformaldehyde, 15min at room temperature and washed once (5,000rpm, 30sec, room temperature) with 1ml KOP4/sorbitol solution (0.1 M KOP4 pH=7.5 with 1.2 M sorbitol), resuspended in 100 μl of KOP4/sorbitol and stored at 4°C up to one month. […]

U2OS cells = experiment: Mitosis time in U2OS cells (live-cell imaging); assay type: cell-based, human; settings: 10 nM peptide, 20 h, images every 5 min
Procedure: CIP3 was derived from a highly conserved region of Smc1 (Figure 1D). Therefore, we sought to test its ability to affect cohesin activity in human cells. U2OS cells were diluted into a 96-well plate and grown for about 20 h. Added to this was 10 nM peptide and the cells were grown for another 20 h. Images of the cells were taken every 5 min (Figure 5A). We expected cohesion loss to result in a mitotic delay. We calculated mitosis time starting from the first image in which condensed mitotic chromosomes were visualized until their disappearance at mitosis exit. Strikingly, the average mitosis time in CIP3-TAT treated cells increased by about 10% (from 6 to 6.5 min), indicating a mitotic delay (Figure 5B).
Figure 5 CIP3 causes a mitotic delay in human cells U2OS cells were plated in a 96-well plate and grown for 20 h to allow adherence. […] Mitosis length was determined by counting the number of images in which mitotic chromosomes were visualized. […] (B) Quantitation of mitosis length in untreated and CIP3-TAT treated cells. At least 300 cells were counted for each condition. ∗∗∗p < 0.0001.
U2OS cells were maintained in Dulbecco's Modified Eagle Medium (DMEM) (Gibco) with 10% fetal bovine serum (FBS) (Corning), 2 mM l-glutamine (Gibco), 1% penicillin-streptomycin (Gibco), and 1 mM sodium pyruvate (Gibco), at 37°C, 5% CO2. […] The significance between conditions was determined by using Student's t-test.

Sequence: KRFKDMEYLSGGEKTGGYGRKKRRQRRR [CIP3-TAT]
- cell cycle delay [1]: No cell cycle delays
- cohesin residency on chromatin [2]: cohesin residency increased in cells treated with CIP3-TAT in all tested regions
- average mitosis time (U2OS cells; untreated: 6 min, at least 300 cells per condition): 6.5 min
- increase of average mitosis time (U2OS cells; vs untreated): about 10%
